“And” between values parts separate entries of the source, which are not always exact repeats. Equal values may be shown once. Read-outs that look alike come from different tables or passages of the source.
What was measured:
[1] = cited from earlier work
CYP2C8 [2] = molecular target: T1, CYP2C8 (Homo sapiens, UniProt P10632)
T1 sequence (P10632 1-490): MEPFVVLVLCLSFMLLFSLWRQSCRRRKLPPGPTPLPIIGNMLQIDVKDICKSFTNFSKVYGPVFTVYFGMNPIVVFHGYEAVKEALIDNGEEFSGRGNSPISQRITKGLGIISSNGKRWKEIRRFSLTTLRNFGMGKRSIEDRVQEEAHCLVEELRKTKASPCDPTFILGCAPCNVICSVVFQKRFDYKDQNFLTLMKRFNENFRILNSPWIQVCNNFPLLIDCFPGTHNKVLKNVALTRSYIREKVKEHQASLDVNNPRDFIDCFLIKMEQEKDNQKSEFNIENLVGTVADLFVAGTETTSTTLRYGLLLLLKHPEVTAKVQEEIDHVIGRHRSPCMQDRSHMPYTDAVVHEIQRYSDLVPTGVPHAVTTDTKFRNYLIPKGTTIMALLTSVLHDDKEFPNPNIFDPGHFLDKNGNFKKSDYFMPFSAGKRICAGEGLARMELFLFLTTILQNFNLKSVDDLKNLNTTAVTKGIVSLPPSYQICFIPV

MATEs = molecular target: MATEs; set-up: method as in Miyake et al., 2021 71; details: average of MATE1 and MATE2-K; ref Miyake et al., 2021 71; cited from earlier work
[3] = ref Charman et al., 2020 1; cited from earlier work
[4] = PBPK input; ref Charman et al., 2020 1; cited from earlier work
OCT1 = system: OCT1; set-up: method as in Ito et al., 2010 68, Panfen et al., 2019 69; details: average; ref Ito et al., 2010 68, Panfen et al., 2019 69; cited from earlier work
[5] = Hepatic / HLM intrinsic clearance, enzyme not defined; details: human, liver microsomes
Caco-2 cells = details: calibrated against propranolol; plasma as medium for atovaquone and piperaquine; ref Charman et al., 2020 1; cited from earlier work
[6] = In vitro flags for victim and perpetrator properties conferring DDI liability; format: in vitro ADME, human; details: in vitro flag, mainly based on in vitro determinations
[7] = PBPK input; ref amodiaquine, DEAQ Winstanley et al., 1987 9; atovaquone Rolan et al., 1997 14; azithromycin Lalak et al., 1993 23; carboxyprimaquine Mihaly et al., 1985 26; chloroquine Walker et al., 1987 29; DHA EMA Website, 44; doxycycline Raghuram et al., 1982 48, Nguyen et al., 1989 49; mefloquine Schwartz et al., 1982 57; primaquine White, 1985 62; proguanil Jeppesen et al., 1997 34; pyrimeth; cited from earlier work
OCT2 = details: read-out: OCT2 Ki; ref Kusuhara et al., 2011 70; cited from earlier work
[8] = Fraction unbound in human liver microsomes (fumic); details: method of Austin et al., 2002
CYP2C8 [9] = molecular target: T1, CYP2C8; experiment: Metabolism by CYP2C8 (CLint, fm)
Excerpt: (§1) In nearly all cases the fraction of systemic elimination metabolised by a given enzyme (fm) determined in vitro was unavailable in the literature.

CYP2C19 = CYP2C19 (Homo sapiens, UniProt P33261); experiment: Metabolism by CYP2C19 (CLint, fm); format: in vitro ADME; details: for fmCYP2C19: fraction metabolised used in the PBPK model (proguanil: total, all routes)
Chain of CYP2C19 (P33261 whole entry): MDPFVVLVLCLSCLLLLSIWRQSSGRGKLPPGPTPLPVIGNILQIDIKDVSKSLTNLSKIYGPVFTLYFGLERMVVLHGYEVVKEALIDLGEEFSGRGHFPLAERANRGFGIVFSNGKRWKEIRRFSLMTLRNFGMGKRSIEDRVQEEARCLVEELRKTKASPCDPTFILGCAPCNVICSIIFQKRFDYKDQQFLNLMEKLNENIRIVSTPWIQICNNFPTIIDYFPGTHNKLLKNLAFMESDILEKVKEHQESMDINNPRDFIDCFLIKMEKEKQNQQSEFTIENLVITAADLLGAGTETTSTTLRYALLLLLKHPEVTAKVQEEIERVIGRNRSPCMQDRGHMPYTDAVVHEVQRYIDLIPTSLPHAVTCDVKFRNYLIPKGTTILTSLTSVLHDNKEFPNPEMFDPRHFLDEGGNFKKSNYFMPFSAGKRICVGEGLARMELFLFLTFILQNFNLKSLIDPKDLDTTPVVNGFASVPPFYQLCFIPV
Excerpt: as §1

[10] = Fraction unbound in plasma (fu), main binding protein; details: PBPK input; unpublished (in-house) data
CYP2C8 [11] = molecular target: T1, CYP2C8; experiment: biochemical
[12] = PBPK input; ref Charman et al., 2020 1; cited from earlier work; remark: listed apart in the source
[13] = Blood to plasma ratio (B:P); details: PBPK input; unpublished (in-house) data
[14] = PBPK absorption inputs (fa, ka, tlag, Qgut, Fg); set-up: species or system human; details: for fa: derived from ascending dose studies, McCarthy et al., 2017
Excerpt: Initial models were built based on available physicochemical and in vitro data to give a ‘bottom-up’ prediction. Areas of uncertainty were highlighted, and the potential impact of uncertainty associated with such parameters was investigated using sensitivity analysis. Available clinical PK data were then used to evaluate and, if required, refine the initial ‘bottom-up’ model. Care was taken to split data into training and test sets wherever possible. The model verification strategy differed across compounds based on availability of different types of clinical data. […] Clinical studies used for drug model development and verification are reported in Table S2 (PK) and Table S3 (DDIs).

CYP2C9 = experiment: Metabolism by CYP2C9 (CLint, fm); format: in vitro ADME, human
Excerpt: as §1

CYP3A4 [15] = molecular target: T2, CYP3A4 (Homo sapiens, UniProt P08684); details: cited from earlier work
T2 sequence (P08684 whole entry): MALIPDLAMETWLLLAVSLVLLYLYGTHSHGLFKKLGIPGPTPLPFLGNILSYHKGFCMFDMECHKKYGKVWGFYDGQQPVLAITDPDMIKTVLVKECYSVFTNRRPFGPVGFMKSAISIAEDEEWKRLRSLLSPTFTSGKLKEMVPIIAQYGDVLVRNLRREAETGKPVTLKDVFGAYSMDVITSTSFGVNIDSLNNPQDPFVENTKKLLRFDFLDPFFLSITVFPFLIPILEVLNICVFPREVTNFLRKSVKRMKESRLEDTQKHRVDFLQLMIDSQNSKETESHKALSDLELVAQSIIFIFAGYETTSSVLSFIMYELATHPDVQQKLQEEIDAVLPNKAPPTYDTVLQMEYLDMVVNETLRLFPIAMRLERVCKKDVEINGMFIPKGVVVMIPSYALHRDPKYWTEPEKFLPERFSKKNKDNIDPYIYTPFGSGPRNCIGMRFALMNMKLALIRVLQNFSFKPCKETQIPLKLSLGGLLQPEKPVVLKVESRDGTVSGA

in vitro = details: human, plasma
CYP3A4 [16] = molecular target: T2, CYP3A4; experiment: in vitro
[17] = measured (0.4 mg/mL protein where stated); ref Charman et al., 2020 1; cited from earlier work
CYP3A4 [18] = molecular target: T2, CYP3A4; experiment: CYP3A4 inhibition (direct and time-dependent); details: Derived from IC50 shift data (single time point), unpublished data
CYP3A4 [19] = molecular target: T2, CYP3A4
Excerpt: as §1

[20] = piperaquine 960 mg SD + clarithromycin 500 mg SD; ref Eurartesim - EMA Website, 12; cited from earlier work
[21] = fraction metabolised used in the PBPK model
[22] = HLM CLint 31.6 µL/min/mg with 20% split equally between CYP2C9 and CYP2C19
[23] = Relative fa (in vivo fasted AUC / high fat fed AUC), EMA Website

CC(F)(F)c1nc2nc(CO)cc(Nc3ccc(S(F)(F)(F)(F)F)cc3)n2n1 [DSM450]
AUC Obs ([1]; in vivo, 400 mg): 271 µg·h/mL
Cmax Obs ([1]; in vivo, 400 mg): 1070 ng/mL
AUC Obs ([1]; in vivo, 600 mg): 477 µg·h/mL
Cmax Obs ([1]; in vivo, 600 mg): 1380 ng/mL
AUC Obs ([1]; in vivo, 800 mg): 454 µg·h/mL
Cmax Obs ([1]; in vivo, 800 mg): 1920 ng/mL
AUC Obs ([1]; in vivo, 1200 mg): 1170 µg·h/mL
Cmax Obs ([1]; in vivo, 1200 mg): 3070 ng/mL
Ki (CYP2C8 [2]): 4.46 µM

CCc1nc(N)nc(N)c1-c1ccc(Cl)cc1 [Pyrimethamine, pyrimethamine]
Ki (MATEs): 0.124 µM
Cmax Obs ([1]; in vivo, 100 mg): 771 ng/mL
pKa(s) [3]: 6.86
fu [4]: 0.095
Ki (OCT1): 2.3 µM
microsomal CLint [5]: 1.8 µL/min/mg
Caco-2 (Papp A-B) (Caco-2 cells): 59.8 10-6 cm/s
Risk as a perpetrator [6]: OCT2 and MATE inhibitor
CL renal [7]: 0.0989 L/h
Ki (OCT2): 10 µM

Cc1cc(Nc2ccc(S(F)(F)(F)(F)F)cc2)n2nc(C(C)(F)F)nc2n1 [DSM265]
fumic ([8]; extrapolated from value measured at 0.4 mg/mL to 0.1 mg/mL): 0.61
fumic ([8]; for CYP2C8 Ki, extrapolated from 0.4mg/mL to 0.2 mg/mL): 0.44
CLint CYP2C8 (CYP2C8 [9]; Unpublished MMV in house data): 2.384 µL/min/pmol
fmCYP2C8 (CYP2C8 [9]; [21]): 70% and ~ 70%
AUC Obs ([1]; DSM265 400 mg SD, 0-inf, ref McCarthy et al., 2017 46): 1210 µg·h/mL
Cmax Obs ([1]; DSM265 400 mg SD, ref McCarthy et al., 2017 46): 11500 ng/mL
AUC Obs ([1]; DSM265 600 mg SD, 0-inf, ref McCarthy et al., 2017 46): 2140 µg·h/mL
Cmax Obs ([1]; DSM265 600 mg SD, ref McCarthy et al., 2017 46): 15500 ng/mL
AUC Obs ([1]; DSM265 800 mg SD, 0-inf, ref McCarthy et al., 2017 46): 2220 µg·h/mL
Cmax Obs ([1]; DSM265 800 mg SD, ref McCarthy et al., 2017 46): 19100 ng/mL
AUC Obs ([1]; DSM265 1200 mg SD, 0-inf, ref McCarthy et al., 2017 46): 4720 µg·h/mL
Cmax Obs ([1]; DSM265 1200 mg SD, ref McCarthy et al., 2017 46): 34800 ng/mL
CLint CYP2C19 (CYP2C19; Unpublished MMV in house data): 1.751 µL/min/pmol
fmCYP2C19 (CYP2C19): 30% and ~ 30%
fu [10]: 0.001
Ki (CYP2C8 [11]): 3.1 µM and 1.18 µM
Caco-2 (Papp A-B) (Caco-2 cells): 61 10-6 cm/s
Log P [12]: 4.03
B:P [13]: 0.70
fa ([14]; doses 400 mg and above): 0.7
fa ([14]; doses 25 - 250 mg): 1

Clc1ccc2c(N3CCN(CCCN4CCN(c5ccnc6cc(Cl)ccc56)CC4)CC3)ccnc2c1 [Piperaquine, piperaquine]
CLint CYP2C9 (CYP2C9; [22]): 3.16 µL/min/pmol
fmCYP2C9 (CYP2C9; [21]): 10%
Ki (CYP3A4 [15]): 3 µM
AUC Obs ([1]; 960 mg QD (fasted, Day 3), 0-72 h, ref Eurartesim S06, Females <75 kg): 5.38 µg·h/mL
AUC Obs ([1]; 960 mg QD (fasted, Day 3), 0-72 h, ref Eurartesim S06, Males <75 kg): 3.93 µg·h/mL
Cmax Obs ([1]; 960 mg QD (fasted, Day 3), ref Eurartesim S06, Females <75 kg): 505 ng/mL
Cmax Obs ([1]; 960 mg QD (fasted, Day 3), ref Eurartesim S06, Males <75 kg): 280 ng/mL
AUC Obs ([1]; 960 mg QD (fed, Day 3), 0-72 h, ref Eurartesim S06, Females <75 kg): 12.5 µg·h/mL
AUC Obs ([1]; 960 mg QD (fed, Day 3), 0-72 h, ref Eurartesim S06, Males <75 kg): 10.7 µg·h/mL
Cmax Obs ([1]; 960 mg QD (fed, Day 3), ref Eurartesim S06, Females <75 kg): 1270 ng/mL
Cmax Obs ([1]; 960 mg QD (fed, Day 3), ref Eurartesim S06, Males <75 kg): 1120 ng/mL
AUC Obs ([1]; 1280 mg QD (fasted), 0-72 h, ref Eurartesim S06, Males ≥75 kg): 3.93 µg·h/mL
Cmax Obs ([1]; 1280 mg QD (fasted), ref Eurartesim S06, Males ≥75 kg): 280 ng/mL
AUC Obs ([1]; 1280 mg QD (fed), 0-72 h, ref Eurartesim S06, Males ≥75 kg EMA Website, 33): 10.7 µg·h/mL
Cmax Obs ([1]; 1280 mg QD (fed), ref Eurartesim S06, Males ≥75 kg EMA Website, 33): 1120 ng/mL
AUC Obs ([1]; 1280 mg SD tetraphosphate salt, 0-72 h, ref EMA Website, 33): 3.01 µg·h/mL
Cmax Obs ([1]; 1280 mg SD tetraphosphate salt, ref EMA Website, 33): 190 ng/mL
fraction unbound (in vitro): 0.006
kinact (CYP3A4 [16]): 0.000347 s⁻¹
fumic [17]: 0.013
CLint CYP2C19 (CYP2C19; [22]): 3.16 µL/min/pmol
fmCYP2C19 (CYP2C19): 10%
CYP3A4 KI (CYP3A4 [18]): 0.12 µM
microsomal CLint [5]: 31.6 µL/min/mg
Caco-2 (Papp A-B) (Caco-2 cells): 233 10-6 cm/s
Risk as a perpetrator [6]: CYP3A4 time‐dependent inhibitor
Risk as a victim [6]: Substrate of CYP3A4, CYP2C9 and CYP2C19
fmCYP3A4 (CYP3A4 [19]): 80%
CLint CYP3A4 (CYP3A4 [19]; microsomes): 25.3 µL/min/pmol
AUC ratio Obs [20]: ≤ 2 fold
Cmax ratio Obs [20]: ≤ 2 fold
Log P [12]: 5.27
B:P [13]: 0.9
fa - 960 mg fasted [14, 23]: 0.4
fa - 1280 mg fasted [14, 23]: 0.33
fa - 960 mg fed ([14]; Relative fa, EMA Website): 1
fa - 1280 mg fed ([14]; Relative fa, EMA Website): 1

Reference: publication PMC10508484, “Development and application of a PBPK modeling strategy to support antimalarial drug development” (CPT: Pharmacometrics & Systems Pharmacology, 2023)
